Laboratory results published in PubChem BioAssay AID1576 (EPA DSSTox, 2009).
Active and inactive are the calls of the source.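 How the source made its calls: active means chemicals shown by follow-up kinetic tests to compete for rat estrogen receptor sites, with a measured inhibition constant; inconclusive means some binding seen but constant unmeasurable owing to poor solubility; inactive means no binding up to top dose, or binding unconfirmed.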

These molecules were tested against Estrogen receptor (Rattus norvegicus) (UniProt P06211) (assay: DSSTox (KIERBL) EPA Estrogen Receptor Ki Binding Study (Laws et al.) Database). Conditions: Rat uterine cytosol ER, 3H-estradiol competitive binding.
Estrogen receptor (Rattus norvegicus), sequence (P06211 whole entry, looked up): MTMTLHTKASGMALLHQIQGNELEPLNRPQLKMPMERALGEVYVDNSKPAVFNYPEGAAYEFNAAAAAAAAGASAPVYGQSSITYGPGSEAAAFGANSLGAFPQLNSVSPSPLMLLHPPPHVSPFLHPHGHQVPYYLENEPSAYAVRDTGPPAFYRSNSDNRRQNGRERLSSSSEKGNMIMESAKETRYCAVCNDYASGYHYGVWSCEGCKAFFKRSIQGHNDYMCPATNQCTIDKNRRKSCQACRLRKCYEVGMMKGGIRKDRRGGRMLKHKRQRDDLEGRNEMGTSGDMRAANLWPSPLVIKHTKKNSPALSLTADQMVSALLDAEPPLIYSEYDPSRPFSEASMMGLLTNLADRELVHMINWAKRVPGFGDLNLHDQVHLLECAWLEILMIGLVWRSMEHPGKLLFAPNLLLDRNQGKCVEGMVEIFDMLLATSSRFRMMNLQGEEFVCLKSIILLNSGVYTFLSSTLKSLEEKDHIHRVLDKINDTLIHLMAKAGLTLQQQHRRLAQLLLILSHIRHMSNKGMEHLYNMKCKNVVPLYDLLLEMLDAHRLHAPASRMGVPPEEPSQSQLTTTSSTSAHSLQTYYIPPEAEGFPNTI
Experimental: This study was conducted by EPA researchers to evaluate the validity of the rat uterine cytosolic (RUC) estrogen receptor (ER) competitive binding assay for use in the Endocrine Disruption Screening Program (EDSP). The assay measures the ability of radiolabeled 17-beta-estradiol (3H-E2) to bind with RUC ER in the presence of increasing concentrations of a test chemical. The goal is to employ this in vitro assay as a 1st tier screening tool for assessing the potential of structurally diverse environmental chemicals to bind to the ER, as well as to support research efforts to develop computational models to predict ER binding. A distinguishing feature of the present study was the use of secondary experimental analysis of binding curves and determination of Ki values to confirm that measured IC50 values corresponded to true positive results. The study concluded that a number of experimental conditions can confound interpretation of IC50 values obtained from the RUC ER-binding assay data and lead to false positive results. In particular, some chemical treatments likely alter the stability of the assay by changing the buffer pH, denaturing ER, or disrupting the ER binding kinetics. […] The chemicals used in this study were selected as part of a validation test for two Quantitative Structure-Activity Relationship (QSAR) models designed to predict ER binding [Fed. Reg. 67(250), 79618, Dec. 30, 2002]. Several hundred chemicals were initially screened, including approximately 100 chemicals selected from among the High Production Volume (HPV) chemicals included in EPA's Toxic Substances Control Act (TSCA) inventory that were predicted to be positive for ER binding, with the rest selected at random from the TSCA inventory. All chemicals were initially tested in ER competitive binding assays by Battelle Pacific Northwest Laboratories, Richland, Washington [EPA Contract Number 68-W-99-033, Task 6]. Approximately 50 chemicals produced binding curves that: (1) strongly implied competitive inhibition of ER binding, or (2) produced partial curves or irregular (non-sigmoid) binding curves. These chemicals were further evaluated in an ER competitive binding assay with secondary analysis to confirm true competitive inhibition and to determine an experimental Ki [U.S. EPA Contract 3D-5967-NTEX]. The results of RUC ER screening for these 50 structurally diverse chemicals, for which secondary confirmatory analyses were performed, were published in the Main Citation (Laws et al., 2006, Tox. Sci. 94:46-56). The remaining 228 chemicals were designated as non-binders based on initial screening studies.
The DSSTox KIERBL data files include all published IC50 and Ki experimental results for the 50 chemicals included in the Main Citation (Laws et al., 2006) (denoted Group 1), as well as previously unpublished results for an additional 228 structually diverse TSCA chemicals for which no ER binding was observed (denoted Group 2. IC50 values were determined for 32 compounds in Group 1 as the concentration of a test chemical that inhibits the maximal specific binding of 0.33 nM radiolabeled (3H) 17-beta-estradiol (E2) to rat uterine cytosolic (RUC) estrogen receptor (ER) by 50%. Confirmation of binding status was accomplished by secondary analysis using Lineweaver-Burk plots and slope replots to determine true competitive inhibition and an experimental Ki value. Ki is the inhibition constant for the test chemical, i.e., the concentration of the test chemical that will bind to half the binding sites at equilibrium (displacing half of the probe-bound receptors), in the absence of radioligand or other competitors. Ki reported as Mean +/- Standard Error from n=2 experiments (see StandardError_Ki_n2) and is determined from Lineweaver-Burk plots over the tested dose range (TestedRange_microM). For more information see BindingCurve_Group and BindingCurve_Details. […]
For CCOC(=O)/C=C/c1ccc(/C=C/C(=O)OCC)cc1, the outcome was “inactive; none”.
With CCCCCCCCCCCCCCBr the outcome was “inactive; none”.
Cc1c(C)c2c(c(C)c1O)CC[C@@](C)(CCC[C@H](C)CCC[C@H](C)CCCC(C)C)O2 was tested, and the outcome was “inactive; none”.
O=C1c2ccccc2C(=O)N1SC1CCCCC1 was tested, and the outcome was “inactive; none”.
C1=CCCCC1 was tested, and the outcome was “inactive; none”.
Cc1ccc2n[nH]nc2c1 was tested, and the outcome was “inactive; none”.
With Nc1ccc(F)c(Cl)c1 the outcome was “inactive; none”.
For N#CCC(=O)O, the outcome was “inactive; none”.
For CCc1ccc(Br)cc1, the outcome was “inactive; incomplete”.
In the case of C1CCC(NC2CCCCC2)CC1, the outcome is reported as “inactive; none”.
For CC(O)C(=O)O (stereo not drawn), the outcome was “inactive; none”.
With C(CCOCC1CO1)COCC1CO1 (stereo not drawn) the outcome was “inactive; none”.
Oc1ccc(Sc2ccc(O)cc2O)c(O)c1 was tested, and the outcome was “inactive; incomplete”.
CCOC(=O)C(CC)C(=O)OCC was tested, and the outcome was “inactive; none”.
With C=CC(=O)OCCC(C)OC(=O)C=C (stereo not drawn) the outcome was “inactive; none”.
With NNC(=O)c1cccc(C(=O)NN)c1 the outcome was “inactive; none”.
CC1CCCCN1CCCOC(=O)c1ccc(Cl)c(Cl)c1 (stereo not drawn) was tested, and the outcome was “inactive; none”.
With CC(=O)CC(=O)N(C)C the outcome was “inactive; none”.
CCCCCCCC=O was tested, and the outcome was “inactive; irregular”.
With Cc1cc(Cc2cc(C)cc(C(C)(C)C)c2O)c(O)c(C(C)(C)C)c1 the outcome was “inactive; none”.
In the case of CO[Si](CCCCl)(OC)OC, the outcome is reported as “inactive; none”.
O=C(Oc1ccccc1)c1ccc2ccccc2c1O was tested, and the outcome was “inactive; none”.
In the case of CCO[Si](CCCN=C=O)(OCC)OCC, the outcome is reported as “inactive; none”.
Cc1cc(C(C)(C)C)c(O)c(C)c1Cn1c(=O)n(Cc2c(C)cc(C(C)(C)C)c(O)c2C)c(=O)n(Cc2c(C)cc(C(C)(C)C)c(O)c2C)c1=O was tested, and the outcome was “inactive; none”.
In the case of CC(C)(C)c1cc(-n2nc3ccc(Cl)cc3n2)c(O)c(C(C)(C)C)c1, the outcome is reported as “inactive; none”.
With O=C(Oc1cccc(O)c1)c1ccccc1 the outcome was “inactive; none”.
For O=C(Nc1ccccc1)c1cc(Cl)ccc1O, the outcome was “inactive; incomplete”.
In the case of O=CCCl, the outcome is reported as “inactive; none”.
O=C(O)CCCCC(=O)O was tested, and the outcome was “inactive; none”.
With CCOc1ccc2c(c1)C(C)=CC(C)(C)N2 the outcome was “inactive; none”.
For O=C(O)c1ccccc1COc1ccccc1, the outcome was “inactive; none”.
For Cc1ccc(C)c(O)c1C, the outcome was “inactive; none”.
With CC(c1cc(C(C)(C)C)cc(C(C)(C)C)c1O)c1cc(C(C)(C)C)cc(C(C)(C)C)c1O the outcome was “inactive; none”.
With CCCCOCCCOC(=O)COc1ccc(Cl)cc1Cl the outcome was “inactive; none”.
For C=CC(=O)OCCOCCOC(=O)C=C, the outcome was “inactive; none”.
Cc1cccc(C(=O)O)c1O was tested, and the outcome was “inactive; none”.
In the case of c1ccc(-c2ccccc2)cc1, the outcome is reported as “inactive; none”.
In the case of CCC(=O)O, the outcome is reported as “inactive; none”.
CCOC(=O)c1ccccc1 was tested, and the outcome was “inactive; none”.
CC1=CC(=C(c2ccc(N)cc2)c2ccc(N)cc2)C=CC1=N was tested, and the outcome was “inactive; none”.
For CCCCCCC(=O)O, the outcome was “inactive; none”.
For CCCCCCCCCCCCOCCOCCO, the outcome was “inactive; none”.
With ClC(Cl)C(Cl)Cl the outcome was “inactive; none”.
In the case of CC(C)COC(=O)CC(C(=O)OCC(C)C)S(=O)(=O)O (stereo not drawn), the outcome is reported as “inactive; none”.
CCCCCCOC(=O)c1ccccc1C(=O)OCCCCCC was tested, and the outcome was “inactive; none”.
O=P(O)(O)CCCl was tested, and the outcome was “inactive; none”.
C=CC(=O)OCCC(F)(F)C(F)(F)C(F)(F)C(F)(F)C(F)(F)C(F)(F)F was tested, and the outcome was “inactive; none”.
With O=C(n1ccnc1)n1ccnc1 the outcome was “inactive; none”.
In the case of CN(C)c1ccc(C(=C2C=CC(=[N+](C)C)C=C2)c2ccc(N(C)C)cc2)cc1, the outcome is reported as “inactive; none”.
CC(=O)c1ccc(O)cc1 was tested, and the outcome was “inactive; none”.
CC1(C)C(C=C(Cl)Cl)C1C(=O)OC(C#N)c1cccc(Oc2ccccc2)c1 (stereo not drawn) was tested, and the outcome was “inactive; none”.
For COc1ccc(C=O)cc1OC, the outcome was “inactive; incomplete”.
For C=CC(=O)OCC(C)O (stereo not drawn), the outcome was “inactive; none”.
In the case of CO[Si](CCCN)(OC)OC, the outcome is reported as “inactive; none”.
In the case of CCCCOC(=O)CCC(C)=O, the outcome is reported as “inactive; none”.
O=C1CCC(=O)O1 was tested, and the outcome was “inactive; none”.
O=S(=O)(O)c1ccc(N=Nc2c(O)ccc3ccccc23)cc1 was tested, and the outcome was “inactive; none”.
O=C=Nc1cccc(C(F)(F)F)c1 was tested, and the outcome was “inactive; none”.
OCCS was tested, and the outcome was “inactive; none”.
For CCN(CCO)c1ccc(N=Nc2ccc([N+](=O)[O-])cc2Cl)cc1, the outcome was “inactive; none”.
With Cc1cc(-n2nc3ccc(Cl)cc3n2)c(O)c(C(C)(C)C)c1 the outcome was “inactive; none”.
For CC(C)CCC(C)Nc1ccc(NC(C)CCC(C)C)cc1 (stereo not drawn), the outcome was “inactive; none”.
In the case of CCCCCCCCCCCCCCC(Br)C(=O)O (stereo not drawn), the outcome is reported as “inactive; incomplete”.
With O=C=NCCCCCCN=C=O the outcome was “inactive; none”.
For CCCCCCCC(=O)OCC(COC(=O)CCCCCCC)OC(=O)CCCCCCC, the outcome was “inactive; none”.
CSc1ccc(C(=O)C(C)(C)N2CCOCC2)cc1 was tested, and the outcome was “inactive; none”.
With C=CCCCCCCCCC=O the outcome was “inactive; incomplete”.
For CC(C)(C)[Si](C)(C)Cl, the outcome was “inactive; none”.
With CCSC(=O)N(CC)C1CCCCC1 the outcome was “inactive; none”.
CCCCCCC1CCC(=O)O1 (stereo not drawn) was tested, and the outcome was “inactive; none”.
In the case of CC/C=C\CCOC(=O)c1ccccc1O, the outcome is reported as “inactive; incomplete”.
CC(CO)c1ccccc1 (stereo not drawn) was tested, and the outcome was “inactive; incomplete”.
In the case of O=C1OC2(c3ccc(O)cc3Oc3cc(O)ccc32)c2c(Cl)c(Cl)c(Cl)c(Cl)c21, the outcome is reported as “inactive; none”.
In the case of CC(C)Oc1cc(-n2nc(C(C)(C)C)oc2=O)c(Cl)cc1Cl, the outcome is reported as “inactive; none”.
CCCCCCCCCCCCCCCCCCN was tested, and the outcome was “inactive; none”.
With CCCCCCC the outcome was “inactive; none”.
In the case of CCCCCCOC(C)=O, the outcome is reported as “inactive; none”.
CCCCS was tested, and the outcome was “inactive; none”.
N#Cc1cc([N+](=O)[O-])ccc1N was tested, and the outcome was “inactive; none”.
Cc1cc(O)c(C(C)(C)C)cc1C(C)CC(c1cc(C(C)(C)C)c(O)cc1C)c1cc(C(C)(C)C)c(O)cc1C (stereo not drawn) was tested, and the outcome was “inactive; none”.
For CCc1ccc(CC)cc1, the outcome was “inactive; none”.
With Cc1cc(C(C)(C)C)cc(C)c1C the outcome was “inactive; none”.
In the case of COc1ccc(C(=O)c2ccc(OC)cc2O)c(O)c1, the outcome is reported as “inactive; none”.
For O=Cc1ccc(F)cc1, the outcome was “inactive; none”.
With O=C1OC2(c3ccc(O)cc3Oc3cc(O)ccc32)c2ccccc21 the outcome was “inactive; none”.
Cc1cc(C)c(C)cc1C was tested, and the outcome was “inactive; none”.
In the case of CN(C)C(=O)Nc1ccc(Cl)c(Cl)c1, the outcome is reported as “inactive; none”.
In the case of CC(C)C(=O)C(C)C, the outcome is reported as “inactive; none”.
For CC(C)(C)CC(C)(C)c1ccc(O)c(-n2nc3ccccc3n2)c1, the outcome was “inactive; none”.
For c1c[nH]cn1, the outcome was “inactive; none”.
For CCOP(=S)(OCC)SCn1c(=O)oc2cc(Cl)ccc21, the outcome was “inactive; none”.

Same assay, conditions: Rat uterine cytosol ER, 3H-estradiol competitive binding; TestedRange_microM: 0.5-10
CCCCCCCCCCCCCCCCCC[N+](C)(C)CCC[Si](OC)(OC)OC was tested, and the outcome was “inactive; irregular”.

Same assay, conditions: Rat uterine cytosol ER, 3H-estradiol competitive binding; TestedRange_microM: 0.6-1.2
CC(C)CCCCCCc1ccc(O)cc1 showed a Potency of 0.6 µM.

Same assay, conditions: Rat uterine cytosol ER, 3H-estradiol competitive binding; TestedRange_microM: 3-30
CC(C)(c1ccccc1)c1ccc(O)cc1 gave a Potency of 16.5 µM.

Same assay, conditions: Rat uterine cytosol ER, 3H-estradiol competitive binding; TestedRange_microM: 10-100
CCCCCCCCCCCCCCCCCC[N+](C)(C)C was tested, and the outcome was “inactive; irregular”.
With O=S(=O)(c1ccc(O)cc1)c1ccc(O)cc1 the Potency was 82.4 µM.

Same assay, conditions: Rat uterine cytosol ER, 3H-estradiol competitive binding; TestedRange_microM: 20-70
CC(c1ccc(O)cc1)(c1ccc(O)cc1)c1ccc(O)cc1 showed a Potency of 18.3 µM.

Same assay, conditions: Rat uterine cytosol ER, 3H-estradiol competitive binding; TestedRange_microM: 44-178
Molecule CCCCCCCc1ccc(O)cc1 has a Potency of 177 µM.
